Experimental data reported in BigSolDB 2.1.

COc1cc(-c2cc(-c3ccc(O)cc3)[nH]c(=O)c2C#N)ccc1O
solubility (mole fraction)
Settings	in 1,4-dioxane	in chloroform	in ethanol	in ethyl acetate	in methanol	in n-butanol	in n-propanol
298.15 K	0.00153	0.00123	0.000745	0.00106	0.000574	0.000511	0.000847
303.15 K	0.00161	0.0013	0.000786	0.00111	0.000605	0.000566	0.000882
308.15 K	0.00169	0.00137	0.000828	0.00117	0.000635	0.00062	0.000927
313.15 K	0.00178	0.00144	0.000876	0.00122	0.000664	0.000674	0.00098
318.15 K	0.00187	0.00151	0.000922	0.00127	0.000693	0.000728	0.00104
323.15 K	0.00195	0.00157	0.000976	0.00134	0.000724	0.000794	0.00111
328.15 K	0.00203	0.00164	0.00103	0.0014	0.000754	0.000861	0.00116

COc1cc(-c2cc(-c3ccc(F)cc3)[nH]c(=O)c2C#N)ccc1O
solubility (mole fraction)
Settings	in 1,4-dioxane	in chloroform	in ethanol	in ethyl acetate	in methanol	in n-butanol	in n-propanol
298.15 K	0.00156	0.00134	0.000762	0.00133	0.000618	0.000531	0.000864
303.15 K	0.00164	0.00139	0.000809	0.00142	0.000638	0.000589	0.000907
308.15 K	0.00173	0.00145	0.000848	0.0015	0.000658	0.000648	0.00095
313.15 K	0.00183	0.00151	0.000897	0.0016	0.000688	0.000707	0.00101
318.15 K	0.00193	0.00158	0.000946	0.00169	0.000718	0.000767	0.00108
323.15 K	0.00202	0.00167	0.001	0.00178	0.000754	0.000835	0.00113
328.15 K	0.00211	0.00176	0.00106	0.00187	0.00079	0.000903	0.00119

COc1ccc(-c2cc(-c3ccc(O)c(OC)c3)c(C#N)c(=O)[nH]2)cc1
solubility (mole fraction)
Settings	in 1,4-dioxane	in chloroform	in ethanol	in ethyl acetate	in methanol	in n-butanol	in n-propanol
298.15 K	0.00145	0.00111	0.00069	0.00107	0.000472	0.000297	0.000733
303.15 K	0.00154	0.00116	0.000724	0.00115	0.000502	0.000344	0.000782
308.15 K	0.00162	0.0012	0.000759	0.00123	0.000532	0.000389	0.000827
313.15 K	0.00171	0.00124	0.000802	0.00129	0.000562	0.000443	0.000886
318.15 K	0.0018	0.00129	0.000846	0.00136	0.000592	0.000497	0.000934
323.15 K	0.00189	0.00134	0.000899	0.00145	0.000625	0.000565	0.00098
328.15 K	0.00199	0.00138	0.000953	0.00154	0.000659	0.000633	0.00103

COc1cc(-c2cc(-c3ccc(Br)cc3)[nH]c(=O)c2C#N)ccc1O
solubility (mole fraction)
Settings	in 1,4-dioxane	in chloroform	in ethanol	in ethyl acetate	in methanol	in n-butanol	in n-propanol
298.15 K	0.0014	0.00114	0.00071	0.00109	0.000523	0.000338	0.000757
303.15 K	0.00148	0.00119	0.00075	0.00116	0.000555	0.000384	0.0008
308.15 K	0.00155	0.00123	0.000789	0.00124	0.000587	0.00043	0.000843
313.15 K	0.00163	0.00128	0.000832	0.00132	0.000615	0.000484	0.0009
318.15 K	0.0017	0.00133	0.000876	0.0014	0.000642	0.000538	0.000951
323.15 K	0.00177	0.00137	0.000919	0.00148	0.000682	0.000614	0.000997
328.15 K	0.00184	0.00142	0.000972	0.00156	0.000722	0.000691	0.00105

COc1cc(-c2cc(-c3ccc(Cl)cc3)[nH]c(=O)c2C#N)ccc1O
solubility (mole fraction)
Settings	in 1,4-dioxane	in chloroform	in ethanol	in ethyl acetate	in methanol	in n-butanol	in n-propanol
298.15 K	0.00149	0.00118	0.00073	0.00123	0.000577	0.0004	0.000791
303.15 K	0.00156	0.00123	0.00077	0.00132	0.000603	0.000445	0.000836
308.15 K	0.00163	0.00129	0.00081	0.0014	0.000629	0.000489	0.000882
313.15 K	0.00172	0.00135	0.000861	0.0015	0.000653	0.000549	0.000929
318.15 K	0.00181	0.00141	0.000905	0.00159	0.000677	0.000609	0.000976
323.15 K	0.00189	0.00149	0.000948	0.00168	0.000705	0.000672	0.00102
328.15 K	0.00197	0.00157	0.001	0.00177	0.000732	0.000735	0.00107
